Laboratory results from PubChem BioAssay AID292 (DTP/NCI, 2004).
“And” between values parts separate entries of the source, which are not always exact repeats. Identical values can stand only once. Toxic doses and inconclusive results are not listed. Rule for the calls: active = survival T/C of 150% or more; inactive = T/C below 125% in these data.

Tested on: B6C3F1 mice, ip Sarcoma M5076, median survival T/C
Assay: NCI In Vivo Anticancer Drug Screen. Data for tumor model Sarcoma M5076 (intraperitoneal) in B6C3F1 mice
Conditions: endpoint: median survival time, schedule: Q04DX004 (ip), higher = longer survival
How it was run: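 Antitumour effect is judged in tumour-bearing mice by comparing survival after compound dosing against vehicle-only animals, reported as T/C.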

[1] = dose: 12.5 mg/kg/injection, vehicle: saline with Tween-80
[2] = dose: 75.0 mg/kg/injection, vehicle: saline
[3] = dose: 150.0 mg/kg/injection, vehicle: saline
[4] = dose: 300.0 mg/kg/injection, vehicle: saline
[5] = dose: 600.0 mg/kg/injection, vehicle: saline
[6] = dose: 1200.0 mg/kg/injection, vehicle: saline
[7] = dose: 1.5 mg/kg/injection, vehicle: saline
[8] = dose: 3.0 mg/kg/injection, vehicle: saline
[9] = dose: 50.0 mg/kg/injection, vehicle: saline with Tween-80
[10] = dose: 12.5 mg/kg/injection, vehicle: saline
[11] = dose: 100.0 mg/kg/injection, vehicle: saline with Tween-80
[12] = dose: 200.0 mg/kg/injection, vehicle: saline with Tween-80
[13] = dose: 400.0 mg/kg/injection, vehicle: saline with Tween-80

Measured: T/C

COc1cccc(Sc2ccc([N+](=O)[O-])c3no[n+]([O-])c23)c1
inactive: dose: 3.75 mg/kg/injection, vehicle: saline with Tween-80 105 % of control | dose: 7.5 mg/kg/injection, vehicle: saline with Tween-80 106 % of control | dose: 15.0 mg/kg/injection, vehicle: saline with Tween-80 105 % of control | dose: 30.0 mg/kg/injection, vehicle: saline with Tween-80 101 % of control | dose: 60.0 mg/kg/injection, vehicle: saline with Tween-80 98 % of control

CC(=O)c1cccc(NC2C(N)C(NC(=O)N(C)C)(C(C)O)C(C)(O)C2(O)COC(=O)c2c(C)cccc2O)c1 (stereo not given)
inactive: dose: 2.5 mg/kg/injection, vehicle: saline 112 % of control and 114 % of control | dose: 5.0 mg/kg/injection, vehicle: saline 105 % of control and 115 % of control | dose: 10.0 mg/kg/injection, vehicle: saline 117 % of control and 120 % of control | dose: 20.0 mg/kg/injection, vehicle: saline 115 % of control

CC(C)c1cc(C(=O)O)c(O)c(C(C)C)c1.CC(C)c1cc(C(=O)O)c(O)c(C(C)C)c1.[Cu]
inactive: dose: 1.5 mg/kg/injection, vehicle: saline with Tween-80 95 % of control and 104 % of control | dose: 3.0 mg/kg/injection, vehicle: saline with Tween-80 102 % of control and 104 % of control | dose: 6.0 mg/kg/injection, vehicle: saline with Tween-80 96 % of control and 102 % of control | dose: 12.0 mg/kg/injection, vehicle: saline with Tween-80 88 % of control and 102 % of control | [1] 93 % of control | dose: 24.0 mg/kg/injection, vehicle: saline with Tween-80 90 % of control

NCc1cc(O)c(O)c(O)c1
inactive: [2] 100 % of control and 106 % of control | [3] 100 % of control and 104 % of control | [4] 100 % of control and 104 % of control | [5] 101 % of control and 118 % of control | [6] 104 % of control

[Cl][Hg][Cl]
inactive: dose: 0.38 mg/kg/injection, vehicle: saline 93 % of control | dose: 0.39 mg/kg/injection, vehicle: saline 96 % of control | dose: 0.75 mg/kg/injection, vehicle: saline 96 % of control | dose: 0.78 mg/kg/injection, vehicle: saline 86 % of control | [7] 96 % of control | dose: 1.56 mg/kg/injection, vehicle: saline 87 % of control | [8] 93 % of control | dose: 3.12 mg/kg/injection, vehicle: saline 87 % of control

OCC(O)C(O)C(O)C(O)CO (stereo not given)
inactive: [2] 96 % of control and 102 % of control | [3] 111 % of control | [4] 96 % of control and 100 % of control | [5] 92 % of control and 101 % of control | [6] 101 % of control and 106 % of control

CCCCCCCC1C(=O)OC2CC3C(C)=CC(=O)C(O)C3(C)C3C4(O)OCC23C1C(C)C4O (stereo not given)
inactive: dose: 2.5 mg/kg/injection, vehicle: Klucel (hydroxypropylcellulose) (HPC) 109 % of control | dose: 5.0 mg/kg/injection, vehicle: Klucel (hydroxypropylcellulose) (HPC) 108 % of control | dose: 10.0 mg/kg/injection, vehicle: Klucel (hydroxypropylcellulose) (HPC) 109 % of control | dose: 20.0 mg/kg/injection, vehicle: Klucel (hydroxypropylcellulose) (HPC) 106 % of control

OC1(c2cccc(Cl)c2)C2=NCCCN2c2ccccc21 (stereo not given)
inactive: dose: 6.25 mg/kg/injection, vehicle: saline with Tween-80 102 % of control | [1] 103 % of control | dose: 25.0 mg/kg/injection, vehicle: saline with Tween-80 100 % of control | [9] 99 % of control

CCN(Cc1ccc(Cl)c(Cl)c1)c1ccc2nc(N)nc(N)c2c1C
inactive: dose: 6.25 mg/kg/injection, vehicle: saline 107 % of control | [10] 107 % of control and 122 % of control | dose: 25.0 mg/kg/injection, vehicle: saline 118 % of control (2×) and 123 % of control | dose: 50.0 mg/kg/injection, vehicle: saline 110 % of control

Nc1ccc(S(=O)(=O)Nc2cnc3c(Cl)cccc3n2)cc1
inactive: dose: 100.0 mg/kg/injection, vehicle: DMSO 104 % of control | dose: 200.0 mg/kg/injection, vehicle: DMSO 102 % of control | dose: 400.0 mg/kg/injection, vehicle: DMSO 93 % of control

COc1ccc(-c2c(N3CCOCC3)oc3cc(N4CCOCC4)c(O)cc23)cc1
inactive: [9] 95 % of control | [11] 104 % of control | [12] 98 % of control | [13] 95 % of control

COC(=O)[C@@]12OC[C@]34[C@H]([C@@H](O)[C@@H]1O)[C@@]1(C)CC(=O)C(OC(=O)CC(=O)OC5=C(C)[C@@H]6C[C@H]7OC(=O)[C@H](OC(=O)/C=C(\C)C(C)C)[C@H]8[C@]9(C(=O)OC)OC[C@]78[C@H]([C@@H](O)[C@@H]9O)[C@@]6(C)CC5=O)=C(C)[C@@H]1C[C@H]3OC(=O)[C@H](OC(=O)/C=C(\C)C(C)C)[C@@H]24
inactive: dose: 0.75 mg/kg/injection, vehicle: saline + Tween-80 + alcohol 108 % of control | dose: 1.5 mg/kg/injection, vehicle: saline + Tween-80 + alcohol 118 % of control | dose: 3.0 mg/kg/injection, vehicle: saline + Tween-80 + alcohol 118 % of control | dose: 6.0 mg/kg/injection, vehicle: saline + Tween-80 + alcohol 112 % of control

CN(C)CCNC1=C(Cl)C(=O)c2ccccc2C1=O
inactive: [7] 91 % of control | [8] 98 % of control | dose: 6.0 mg/kg/injection, vehicle: saline 89 % of control | dose: 12.0 mg/kg/injection, vehicle: saline 105 % of control | [10] 106 % of control

CCOC(=O)Nc1cc2c(c(N)n1)N=C(c1ccccc1)CO2
inactive: [9] 101 % of control | [11] 107 % of control | [12] 109 % of control | [13] 105 % of control

COc1ccc(-c2nnc3cc(C)n4nnnc4n23)cc1OC
inactive: dose: 18.75 mg/kg/injection, vehicle: Klucel (hydroxypropylcellulose) (HPC) 99 % of control | dose: 37.5 mg/kg/injection, vehicle: Klucel (hydroxypropylcellulose) (HPC) 94 % of control | dose: 75.0 mg/kg/injection, vehicle: Klucel (hydroxypropylcellulose) (HPC) 98 % of control | dose: 150.0 mg/kg/injection, vehicle: Klucel (hydroxypropylcellulose) (HPC) 99 % of control | dose: 300.0 mg/kg/injection, vehicle: Klucel (hydroxypropylcellulose) (HPC) 91 % of control

O=C(c1ncccc1O)N1CCCCC1
inactive: dose: 40.63 mg/kg/injection, vehicle: distilled water + Tween-80 86 % of control | dose: 81.25 mg/kg/injection, vehicle: distilled water + Tween-80 103 % of control | dose: 325.0 mg/kg/injection, vehicle: distilled water + Tween-80 97 % of control | dose: 650.0 mg/kg/injection, vehicle: distilled water + Tween-80 90 % of control

C=C(C)C1C2CC3(C)C4(CO4)C4OC4C3(O)C1C(=O)O2 (stereo not given)
inactive: dose: 0.25 mg/kg/injection, vehicle: Klucel (hydroxypropylcellulose) (HPC) 96 % of control | dose: 0.5 mg/kg/injection, vehicle: Klucel (hydroxypropylcellulose) (HPC) 112 % of control | dose: 1.0 mg/kg/injection, vehicle: Klucel (hydroxypropylcellulose) (HPC) 100 % of control

CCOC(=O)C(N)CSC(=O)NC (stereo not given)
inactive: dose: 130.0 mg/kg/injection, vehicle: saline 105 % of control | dose: 216.0 mg/kg/injection, vehicle: saline 111 % of control and 119 % of control | dose: 360.0 mg/kg/injection, vehicle: saline 115 % of control and 122 % of control
